Data taken from PMC9609996, “SAR Study and Molecular Mechanism Investigation of Novel Naphthoquinone-furan-2-cyanoacryloyl Hybrids with Antitumor Activity” (Pharmaceutics, 2022).
Like-named read-outs stand apart in the source and are kept apart here. Blank lines part the entries; values can stand above or below the compound they belong to.

Experiments:
HeLa = assay: CCK-8 anti-proliferation assay, HeLa; type: cell-based, human; details: mean ± SD; for inhibition at 20 µM: read-out: Inhibition Rate (%) at 20 μM HeLa
Description: (§1) Human cervical cancer HeLa, human prostate cancer PC3, human colonic carcinoma HCT116, human lung carcinoma A549, human breast cancer MDA-MB-231, mouse melanoma B16, human ovarian cancer SKOV3, human hepatoma Hep3B, and human liver L02 cells were purchased from the Cell Bank of Shanghai Institute of Biochemistry and Cell Biology, Chinese Academy of Sciences (Shanghai, China). The HeLa, A549, B16, PC3, MDA-MB-231, HCT116, and L02 cells were cultured in Dulbecco’s modified Eagle medium (DMEM, Gibco Inc.; Gaithersburg, MD, USA). All cultures were supplied with 10% fetal bovine serum (FBS; YHSM, Beijing, China), 100 IU/mL of penicillin, and 100 μg/mL of streptomycin, and cells were incubated at 37 °C in an atmosphere of 5% CO2.
(§2) A CCK-8 kit (MCE, USA) was used to perform a CCK-8 assay. Cells were plated and grown in the 96-well plates for the indicated period (48 h) in the incubator, followed by an incubation with the CCK-8 solutions for 1–4 h. Subsequently, the absorbance (450 nm) was measured by a microplate reader. The median inhibitory concentration (IC50) was determined from the dose–response curve. Experiments were performed in a triplicate.

A549 = assay: CCK-8 anti-proliferation assay, A549; type: cell-based, human; details: mean ± SD; for inhibition at 20 µM: A549, 20 μM, read-out: Inhibition Rate (%) at 20 μM A549
Description: as §1, §2

PC3 = assay: CCK-8 anti-proliferation assay, PC3; type: cell-based, human; details: mean ± SD; for inhibition at 20 µM: PC-3, 20 μM, read-out: Inhibition Rate (%) at 20 μM PC3
Description: as §1, §2

HCT116 = assay: CCK-8 anti-proliferation assay, HCT116; type: cell-based, human; details: mean ± SD; for inhibition at 20 µM: HCT-116, 20 μM, read-out: Inhibition Rate (%) at 20 μM HCT116
Description: as §1, §2

[1] = system: four cancer cell lines (HeLa, PC3, A549, and HCT116); assay: CCK-8 inhibition rates over four cancer cell lines; type: cell-based; details: Homo sapiens
Description: First, the inhibition rates at 20 μM for all newly synthesized compounds were evaluated on four cancer cell lines (HeLa, PC3, A549, and HCT116) by a CCK-8 assay. […] A variety of aliphatic amine substituents were well tolerated (4e, 4f, 5c, and 8f).
as §1, §2

[2] = system: various cancer cell lines; design: method as in PMID 23651330; details: read-out: IC50 against various cancer cell lines; cited from earlier work
Hep3B = assay: CCK-8 anti-proliferation assay, Hep3B; type: cell-based, human; details: Homo sapiens, 48 h, mean ± SD
Description: as §1, §2

L02 cells = assay: CCK-8 assay on normal cells, L02; type: cell-based; details: L02 human normal hepatocytes, 48 h, mean ± SD
Description: as §1, §2

SKOV3 = assay: CCK-8 anti-proliferation assay, SKOV3; type: cell-based; details: Homo sapiens, SK-OV-3, 48 h, mean ± SD
Description: as §1, §2

B16 = assay: CCK-8 anti-proliferation assay, B16; type: cell-based; details: Mus musculus, B16, 48 h, B16 mouse melanoma, mean ± SD
Description: as §1, §2

MDA-MB-231 = assay: CCK-8 anti-proliferation assay, MDA-MB-231; type: cell-based, human; details: Homo sapiens, MDA-MB-231, 48 h, mean ± SD
Description: as §1, §2

[3] = HeLa, PC3, A549, HCT116, CCK-8, read-out: inhibition rate, span over the four cancer cell lines
[4] = one or two of the four cell lines, read-out: inhibition rates against one or two types of tumor cell lines

Compound: COc1cc(-c2ccc(/C=C(\C#N)C(=O)NCCN3CCOCC3)o2)c(OC)c2ccccc12 [Compound 4c, (E)-2-cyano-3-(5-(1,4-dimethoxynaphthalen-2-yl)furan-2-yl)-N-(2-morpholinoethyl)acrylamide]
inhibition at 20 µM (HeLa; Homo sapiens, 20 μM): 24.23 ± 0.01%
inhibition at 20 µM (A549; Homo sapiens): 11.25 ± 0.05%
inhibition at 20 µM (PC3; Homo sapiens): 8.99 ± 0.09%
inhibition at 20 µM (HCT116; Homo sapiens): 18.78 ± 0.04%
inhibition at 20 µM [1, 3]: 8.99 to 24.2%

Compound: COc1cc(-c2ccc(/C=C(\C#N)C(=O)NC3CC(C)(C)NC(C)(C)C3)o2)c(OC)c2ccccc12 [Compound 4e, (E)-2-cyano-3-(5-(1,4-dimethoxynaphthalen-2-yl)furan-2-yl)-N-(2,2,6,6-tetramethylpiperidin-4-yl)acrylamide]
inhibition at 20 µM (HeLa; Homo sapiens, 20 μM): 59.1 ± 0.21%
inhibition at 20 µM (A549; Homo sapiens): 59.49 ± 0.34%
inhibition at 20 µM (PC3; Homo sapiens): 15.8 ± 0.33%
inhibition at 20 µM (HCT116; Homo sapiens): 40.53 ± 0.03%
inhibition at 20 µM [1, 4]: > 50%

Compound: COc1cc(-c2ccc(/C=C(\C#N)C(=O)Nc3ccccc3)o2)c(OC)c2ccccc12 [Compound 4h, (E)-2-cyano-3-(5-(1,4-dimethoxynaphthalen-2-yl)furan-2-yl)-N-phenylacrylamide]
inhibition at 20 µM (HeLa; Homo sapiens, 20 μM): 9.49 ± 0.16%
inhibition at 20 µM (A549; Homo sapiens): 0.25 ± 0.13%
inhibition at 20 µM (PC3; Homo sapiens): 19.53 ± 0.17%
inhibition at 20 µM (HCT116; Homo sapiens): 11.5 ± 0.14%
inhibition at 20 µM [1, 3]: 0.25 to 32.4%

Compound: COc1cc(N2CCC(N(C)C)CC2)ccc1NC(=O)c1ccc(-c2cc(OC)c3ccccc3c2OC)o1 [Compound 8i, 5-(1,4-Dimethoxynaphthalen-2-yl)-N-(4-(4-(dimethylamino)piperidin-1-yl)-2-methoxyphenyl)furan-2-carboxamide]
inhibition at 20 µM (HeLa; Homo sapiens, 20 μM): 55.62 ± 0.12%
inhibition at 20 µM (A549; Homo sapiens): 31.67 ± 0.07%
inhibition at 20 µM (PC3; Homo sapiens): 25.11 ± 0.05%
inhibition at 20 µM (HCT116; Homo sapiens): 47.78 ± 0.19%
inhibition at 20 µM [1, 4]: > 50%

Compound: NS(=O)(=O)c1cccc2c1C(=O)C=C(Nc1cccnc1)C2=O [Ly-5]
IC50 [2]: 0.5 to 1.4 µM

IC50 (HeLa; Homo sapiens, 48 h): 7.06 ± 1.17 µM
IC50 (A549; Homo sapiens, A549, 48 h, 48 h): 7.55 ± 0.06 µM
IC50 (PC3; Homo sapiens, PC-3, 48 h, 48 h): 1.2 ± 0.03 µM
IC50 (Hep3B): 4.36 ± 0.05 µM
IC50 (HCT116; Homo sapiens, HCT-116, 48 h): 7.22 ± 3.14 µM
IC50 (SKOV3): 4.66 ± 0.13 µM
IC50 (B16): 24.1 ± 0.7 µM
IC50 (MDA-MB-231): 8.17 ± 0.16 µM
Compound: C[C@H](NC(=O)/C(C#N)=C/c1cccc(Br)n1)c1ccccc1 [WP1066, reference compound]
IC50 (L02 cells): 3.45 ± 0.41 µM

Compound: (E)-2-cyano-3-(5-(1,4-dioxo-1,4-dihydronaphthalen-2-yl)furan-2-yl)-N-(3-(trifluoromethyl)phenyl)acrylamide [Compound 5g]
Inhibition Rate (%) at 20 μM HeLa (HeLa; 20 μM): 27.98 ± 0.36%
Inhibition Rate (%) at 20 μM A549 (A549; 20 μM): 32.35 ± 0.95%
Inhibition Rate (%) at 20 μM PC3 (PC3; 20 μM): 11.20 ± 0.02%
Inhibition Rate (%) at 20 μM HCT116 (HCT116; 20 μM): 28.25 ± 0.04%
